In ChEMBL document CHEMBL1201862, “PubChem BioAssay data set” (2004):
Calls of active or inactive are those of the source.

Experiments:
[1] = CRF-BP/CRF-R2 complex antagonists, dose response, cell-based, uHTS hits, 384-well (AID 651639); type: functional, Homo sapiens; settings: read-out: IC50_Mean
[2] = biological target: T1, Corticotropin-releasing factor receptor 2/Corticotropin-releasing factor-binding protein (Homo sapiens, UniProt P24387+Q13324); assay: Dose Response confirmation of uHTS hits for small molecule antagonists of the CRF-binding protein and CRF-R2 receptor complex.; type: functional; settings: read-out: IC50_Mean
T1 sequence (Q13324 whole entry): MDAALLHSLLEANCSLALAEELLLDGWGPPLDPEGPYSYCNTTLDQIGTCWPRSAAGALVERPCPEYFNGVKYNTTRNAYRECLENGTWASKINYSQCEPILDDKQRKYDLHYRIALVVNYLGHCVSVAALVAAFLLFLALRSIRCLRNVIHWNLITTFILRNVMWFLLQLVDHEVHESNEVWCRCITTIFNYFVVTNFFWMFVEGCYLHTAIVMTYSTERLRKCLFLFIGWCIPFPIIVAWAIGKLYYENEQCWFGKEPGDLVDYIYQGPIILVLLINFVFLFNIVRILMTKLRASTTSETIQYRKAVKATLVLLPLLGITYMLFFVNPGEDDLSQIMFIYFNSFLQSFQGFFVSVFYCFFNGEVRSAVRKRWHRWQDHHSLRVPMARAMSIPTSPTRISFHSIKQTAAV
T1 sequence (P24387 whole entry): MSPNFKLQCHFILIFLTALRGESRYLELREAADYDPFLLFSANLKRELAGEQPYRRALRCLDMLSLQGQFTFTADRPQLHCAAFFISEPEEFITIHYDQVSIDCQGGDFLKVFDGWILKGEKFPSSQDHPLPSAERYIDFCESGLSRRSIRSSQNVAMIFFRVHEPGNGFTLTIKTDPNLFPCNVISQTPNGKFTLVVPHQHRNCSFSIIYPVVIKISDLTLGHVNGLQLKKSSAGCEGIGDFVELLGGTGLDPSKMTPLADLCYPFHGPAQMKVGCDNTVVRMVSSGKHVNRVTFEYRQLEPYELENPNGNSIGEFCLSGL

[3] = biological target: T1, Corticotropin-releasing factor receptor 2/Corticotropin-releasing factor-binding protein; assay: activators of CRF receptor 2 with binding protein – uHTS hits, confirmation (AID 602473); type: functional; settings: read-out: EC50_Mean
[4] = growth suppression of beta-catenin-knockout colon cells, dose response, cell-based, HCT116, human colon tumor (AID 1045); type: functional;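 note: HCT116 colon tumor cells with beta catenin knocked out; cells exposed to compound for 60 hours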
[5] = Luminescence Cell-Based Dose Retest to Confirm Inhibitors of Cancer Stem Cells. [Related pubchem assays (depositor defined):AID2717, AID2721]; type: functional; settings: Homo sapiens
[6] = growth suppression of PTEN-null colon cells, dose response, cell-based, HCT116 PTEN knockout (AID 1047); type: functional;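 note: HCT116 colon tumor cells with PTEN knocked out; cells exposed to compound for 60 hours before readout; potency for loss of cell viability measured by luminescence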
[7] = A Cell Based Secondary Assay To Explore Cytotoxicity of Compounds that Sensitize Mycobacterium Tuberculosis to Beta-Lactam Antibiotics.; type: functional
[8] = biological target: T2, Sentrin-specific protease 6 (Homo sapiens, UniProt Q9GZR1); type: functional;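 note: Luminescence-based dose-response confirmatory assay of SENP6 inhibition, following up an ultra-high-throughput screen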
T2 sequence (Q9GZR1 whole entry): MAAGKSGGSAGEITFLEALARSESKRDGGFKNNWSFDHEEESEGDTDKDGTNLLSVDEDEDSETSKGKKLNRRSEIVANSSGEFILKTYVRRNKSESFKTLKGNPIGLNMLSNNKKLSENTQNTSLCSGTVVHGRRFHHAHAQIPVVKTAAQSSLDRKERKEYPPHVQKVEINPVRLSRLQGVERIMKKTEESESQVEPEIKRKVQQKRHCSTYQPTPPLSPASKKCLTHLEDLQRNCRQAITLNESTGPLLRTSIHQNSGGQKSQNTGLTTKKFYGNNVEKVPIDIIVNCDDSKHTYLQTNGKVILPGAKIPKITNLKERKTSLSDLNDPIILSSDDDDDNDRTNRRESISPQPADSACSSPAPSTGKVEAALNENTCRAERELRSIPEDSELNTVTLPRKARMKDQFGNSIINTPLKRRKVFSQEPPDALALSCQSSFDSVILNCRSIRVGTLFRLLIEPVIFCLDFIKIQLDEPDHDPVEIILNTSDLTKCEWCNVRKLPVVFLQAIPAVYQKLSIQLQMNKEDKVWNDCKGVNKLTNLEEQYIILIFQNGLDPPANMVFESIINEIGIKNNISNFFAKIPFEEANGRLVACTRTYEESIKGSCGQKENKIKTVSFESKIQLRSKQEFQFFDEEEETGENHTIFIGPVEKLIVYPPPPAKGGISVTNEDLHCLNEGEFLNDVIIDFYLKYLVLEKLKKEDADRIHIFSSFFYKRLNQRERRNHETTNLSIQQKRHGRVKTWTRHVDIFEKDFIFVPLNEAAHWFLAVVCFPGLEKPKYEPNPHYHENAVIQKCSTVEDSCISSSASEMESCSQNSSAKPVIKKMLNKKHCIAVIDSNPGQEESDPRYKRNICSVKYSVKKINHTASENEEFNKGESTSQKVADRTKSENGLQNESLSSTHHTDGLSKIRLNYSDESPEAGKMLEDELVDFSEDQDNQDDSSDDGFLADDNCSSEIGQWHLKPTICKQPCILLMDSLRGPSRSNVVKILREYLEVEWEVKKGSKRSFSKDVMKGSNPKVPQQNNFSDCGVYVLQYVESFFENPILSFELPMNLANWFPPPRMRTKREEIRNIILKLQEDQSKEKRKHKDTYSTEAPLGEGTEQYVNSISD

[9] = biological target: T3, Sentrin-specific protease 8 (Homo sapiens, UniProt Q96LD8); type: functional;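 note: luminescence read-out of SENP8 inhibition, dose-response confirmation following an ultra-high-throughput screen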
T3 sequence (Q96LD8 whole entry): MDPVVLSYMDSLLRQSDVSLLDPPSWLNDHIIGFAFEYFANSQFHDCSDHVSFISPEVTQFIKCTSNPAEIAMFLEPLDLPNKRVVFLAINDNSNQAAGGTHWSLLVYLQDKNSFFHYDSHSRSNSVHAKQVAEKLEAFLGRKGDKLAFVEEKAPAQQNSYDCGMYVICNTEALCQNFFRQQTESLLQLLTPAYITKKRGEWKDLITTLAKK

[10] = biological target: T4, Caspase-3 (Homo sapiens, UniProt P42574); type: functional;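 note: Dose-response selectivity test against caspase-3 for candidate inhibitors of sentrin-specific proteases (SENPs)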
T4 sequence (P42574 whole entry): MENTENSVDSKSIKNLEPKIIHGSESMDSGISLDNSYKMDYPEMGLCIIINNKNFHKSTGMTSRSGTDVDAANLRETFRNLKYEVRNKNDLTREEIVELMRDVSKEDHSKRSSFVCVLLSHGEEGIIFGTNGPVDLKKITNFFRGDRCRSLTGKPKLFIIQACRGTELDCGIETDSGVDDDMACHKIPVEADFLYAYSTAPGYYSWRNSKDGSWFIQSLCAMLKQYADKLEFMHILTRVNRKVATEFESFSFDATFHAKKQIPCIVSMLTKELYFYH

[11] = biological target: T5, Sentrin-specific protease 7 (Homo sapiens, UniProt Q9BQF6); type: functional;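 note: Luminescence-based dose-response confirmation of ultra-high-throughput screening hits, measuring inhibition of SENP7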
T5 sequence (Q9BQF6 whole entry): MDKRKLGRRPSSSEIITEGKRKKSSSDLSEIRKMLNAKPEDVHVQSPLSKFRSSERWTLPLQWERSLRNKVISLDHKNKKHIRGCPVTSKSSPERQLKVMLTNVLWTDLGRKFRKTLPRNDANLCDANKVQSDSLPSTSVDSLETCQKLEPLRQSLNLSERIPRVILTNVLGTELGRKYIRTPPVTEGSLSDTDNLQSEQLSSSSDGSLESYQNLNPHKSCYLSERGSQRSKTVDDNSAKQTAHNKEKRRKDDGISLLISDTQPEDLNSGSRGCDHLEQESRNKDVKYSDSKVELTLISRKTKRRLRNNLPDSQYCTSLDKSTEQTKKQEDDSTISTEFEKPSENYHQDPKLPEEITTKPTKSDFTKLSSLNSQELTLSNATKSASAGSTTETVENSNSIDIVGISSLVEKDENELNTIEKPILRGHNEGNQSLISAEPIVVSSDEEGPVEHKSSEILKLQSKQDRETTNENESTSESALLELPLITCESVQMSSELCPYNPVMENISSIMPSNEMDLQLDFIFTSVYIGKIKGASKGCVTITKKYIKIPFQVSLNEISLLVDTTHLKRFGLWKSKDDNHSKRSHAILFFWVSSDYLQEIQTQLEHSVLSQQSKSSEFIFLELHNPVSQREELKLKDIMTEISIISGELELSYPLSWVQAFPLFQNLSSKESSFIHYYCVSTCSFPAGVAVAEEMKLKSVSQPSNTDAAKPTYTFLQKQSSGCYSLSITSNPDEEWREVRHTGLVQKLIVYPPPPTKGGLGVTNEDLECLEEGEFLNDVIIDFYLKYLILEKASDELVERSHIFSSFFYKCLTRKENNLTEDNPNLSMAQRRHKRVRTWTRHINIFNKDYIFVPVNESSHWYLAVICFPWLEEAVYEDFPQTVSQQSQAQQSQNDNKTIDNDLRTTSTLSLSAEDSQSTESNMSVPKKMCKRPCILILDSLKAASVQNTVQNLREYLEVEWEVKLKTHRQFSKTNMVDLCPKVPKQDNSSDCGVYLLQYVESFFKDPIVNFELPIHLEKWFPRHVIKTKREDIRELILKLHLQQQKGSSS

[12] = biological target: T6, Protein skinhead-1 (Caenorhabditis elegans, UniProt P34707); type: functional
T6 sequence (P34707 whole entry): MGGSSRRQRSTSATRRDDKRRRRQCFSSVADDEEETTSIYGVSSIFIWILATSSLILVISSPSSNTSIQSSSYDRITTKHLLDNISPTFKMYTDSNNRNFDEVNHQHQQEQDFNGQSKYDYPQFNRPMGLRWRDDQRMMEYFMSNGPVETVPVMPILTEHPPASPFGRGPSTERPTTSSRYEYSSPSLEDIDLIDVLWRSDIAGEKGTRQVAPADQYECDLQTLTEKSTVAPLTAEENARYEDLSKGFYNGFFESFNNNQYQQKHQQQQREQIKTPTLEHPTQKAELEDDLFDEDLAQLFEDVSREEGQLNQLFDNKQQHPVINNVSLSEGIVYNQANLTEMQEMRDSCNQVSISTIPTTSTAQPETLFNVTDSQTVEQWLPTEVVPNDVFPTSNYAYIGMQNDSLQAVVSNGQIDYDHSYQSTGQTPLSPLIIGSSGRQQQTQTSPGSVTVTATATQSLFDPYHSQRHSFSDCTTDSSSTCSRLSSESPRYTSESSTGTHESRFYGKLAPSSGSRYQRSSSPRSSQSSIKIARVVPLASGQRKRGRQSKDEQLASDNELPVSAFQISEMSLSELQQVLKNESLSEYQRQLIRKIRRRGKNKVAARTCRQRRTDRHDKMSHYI

[13] = inhibitors of firefly luciferase expression or activity, dose response, H4 neuroglioma cells, luminescence (AID 1990); type: functional, cell-based
[14] = Luminescence Cell-Based Dose Response HTS to Identify Inhibitors of 5'UTR Stem-Loop Driven Prion Protein mRNA Translation in H4 Neuroglioblastoma Cells. [Related pubchem assays: 1827 (Project Summary), 1813 (Primary HTS)]; type: functional
[15] = cytotoxicity toward NIH3T3 fibroblasts, dose response, counter-screen, cell-based, ATP luminescence, mouse fibroblasts (AID 2010); type: functional;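 note: cells exposed to compound for about 90 hours before reading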
[16] = C. albicans growth with fluconazole, confirmation, fluorescence, retest (AID 2467); type: functional, cell-based
[17] = inhibitors of SNCA 5'UTR-driven reporter translation, confirmation, H4 neuroglioma cells, luminescence (AID 1988); type: functional, cell-based
[18] = inhibitors of intracellular T. cruzi replication, confirmation, NIH3T3 host cells, beta-gal luminescence (AID 2044); type: functional, cell-based;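 note: intracellular parasites grown in NIH/3T3 mouse fibroblasts as host cells; luminescent beta-galactosidase reporter signal from transgenic T. cruzi replicating inside host cells; inhibitors lower the luminescence signal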
[19] = NIH-3T3 fibroblast cytotoxicity, dose response, cytotoxicity control, cell-based, fluorescence, Alamar Blue, secondary assay (AID 2327); type: functional;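 note: NIH-3T3 mouse fibroblasts cultured with fluconazole at 8 µg/mL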
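Throughout, for AC50: cells exposed to compound for roughly 70 hours or longer before luminescence read.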

COc1ccc([N+](=O)[O-])cc1NC(=O)c1ccccc1SC
IC50 [1]: 1.79 µM (active) | IC50 [2]: 23 µM (active) | EC50 [3]: > 53 µM (inactive)

CCN1CCN(c2cc(-c3ccccc3)nc3cc(-c4cccc(F)c4)nn23)CC1
EC50 [4]: 11.1 µM (active) | AC50 [5]: 5.42 µM (active) | EC50 [6]: 13.8 µM (active)

COc1ccc2oc(=N)c(C(=O)Nc3ccccc3)cc2c1
CC50 [7]: > 40 µM (active)

Cc1ccc(-c2nc3sc4c(c3c(=O)n2N)CCCC4)cc1
IC50 [8]: 18.2 µM (active) | IC50 [9]: > 100 µM (inactive) | IC50 [10]: 12.7 µM (active) | IC50 [11]: 5.25 µM (active)

CN(C)C1=NP(N(C)C)(N(C)C)=NC(c2ccccc2)=N1
IC50 [1]: > 20 µM (inactive) | IC50 [2]: < 0.368 µM (active) | EC50 [3]: > 53 µM (inactive)

Nc1ccccc1Oc1c(F)c(F)c(Oc2ccccc2N)c(F)c1F
IC50 [1]: > 20 µM (inactive) | IC50 [2]: 4.08 µM (active) | EC50 [3]: > 53 µM (inactive)

O=C(Nc1cccc(S(=O)(=O)N2CCCCC2)c1)Nc1ccc(Cl)cc1Cl
EC50 [4]: 8.76 µM (active) | EC50 [6]: 8.66 µM (active)

O=C(CSc1ncnc2ccccc12)c1cccs1
IC50 [8]: 23.9 µM (active) | IC50 [9]: 17.5 µM (active) | IC50 [10]: 37.4 µM (active) | IC50 [11]: 4.7 µM (active)

N#Cc1cccc(NC(=O)Nc2cccs2)c1
IC50 [1]: > 20 µM (inactive) | IC50 [2]: < 0.368 µM (active) | EC50 [3]: > 53 µM (inactive)

COCCn1c(=O)[nH]c(=O)c2c1nc(-c1ccc(-c3ccc(Cl)cc3[N+](=O)[O-])o1)n2Cc1ccccc1
EC50 [4]: 19.4 µM (active) | EC50 [6]: 17.3 µM (active)

COC(=O)CNC(c1ccccc1Cl)c1cc(Br)ccc1NC(=O)CCN1CCOCC1 (stereo not drawn)
IC50 [12]: > 100 µM (inactive) | CC50 [7]: > 40 µM (active)

COc1cc(NC(=O)c2cccc(Br)c2)nc(OC)n1
IC50 [8]: 31 µM (active) | IC50 [9]: 35.7 µM (active) | IC50 [10]: 20.5 µM (active) | IC50 [11]: 8.86 µM (active)

CCCOc1ccc(C(=O)CCN2CCCCC2)cc1
CC50 [7]: > 40 µM (active)

CCOC(=O)/C=C/c1ccc2oc3ccccc3c(=O)c2c1
IC50 [8]: 16.6 µM (active) | IC50 [9]: 42.7 µM (active) | IC50 [10]: 12.2 µM (active) | IC50 [11]: 3.46 µM (active)

Cc1cccc(C(=O)O/N=C/c2c(N3CCOCC3)n(C)c3ccccc23)c1
EC50 [13]: > 120 µM (not active) | EC50 [14]: 10.8 µM (active) | EC50 [15]: 8.96 µM (active) | EC50 [16]: 0.729 µM (active) | EC50 [17]: 9.98 µM (active) | EC50 [18]: 3.22 µM (active) | EC50 [4]: 2.35 µM (active) | EC50 [19]: > 150 µM (inactive) | EC50 [6]: 2.47 µM (active)
